Patent US12059420B2 (BRISTOL-MYERS SQUIBB COMPANY, priority 2018, dated 2024)
Counter-ions that a name gives are not always drawn.

Each molecule was assayed against T1, human IDO1 (Homo sapiens, UniProt P14902) (assay: IDO inhibition assay in HEK293 cells stably expressing human IDO1 (kynurenine production, Ehrlich reagent, absorbance 490 nm)). Details: 20 hours incubation with compound, 500 nM reference standard = 100% inhibition, read-out: IDO1 HEK Human IC50.
T1 construct: expressed in transfected cells
T1 sequence (P14902 whole entry): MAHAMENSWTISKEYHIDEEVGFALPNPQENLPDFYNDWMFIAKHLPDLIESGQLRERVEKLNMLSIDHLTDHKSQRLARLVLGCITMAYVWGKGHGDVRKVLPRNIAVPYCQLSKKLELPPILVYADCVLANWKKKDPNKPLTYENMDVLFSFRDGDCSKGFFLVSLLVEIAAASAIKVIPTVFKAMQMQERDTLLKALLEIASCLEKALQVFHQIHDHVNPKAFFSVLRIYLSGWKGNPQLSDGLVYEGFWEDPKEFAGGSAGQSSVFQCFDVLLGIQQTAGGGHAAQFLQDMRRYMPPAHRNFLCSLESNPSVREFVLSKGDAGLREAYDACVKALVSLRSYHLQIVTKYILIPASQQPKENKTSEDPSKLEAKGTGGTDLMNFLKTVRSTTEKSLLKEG
Format: cell-based
Experimental: HEK293 cells were transfected with a pCDNA-based mammalian expression vector harboring human IDO1 cDNA (NM 002164.2) by electroporation. They were cultured in medium (DMEM with 10% FBS) containing 1 mg/ml G418 for two weeks. Clones of HEK293 cells that stably expressed human IDO1 protein were selected and expanded for IDO inhibition assay.
The human IDO1/HEK293 cells were seeded at 10,000 cells per 50 μL per well with RPMI/phenol red free media contains 10% FBS in a 384-well black wall clear bottom tissue culture plate (Matrix Technologies LLC) 100 nL of certain concentration of compound was then added to each well using ECHO liquid handling systems. The cells were incubated for 20 hours in 37° C. incubator with 5% CO2.
The compound treatments were stopped by adding trichloroacetic acid (Sigma-Aldrich) to a final concentration at 0.2%. The cell plate was further incubated at 50° C. for 30 minute. The equal volume supernatant (20 μL) and 0.2% (w/v) Ehrlich reagent (4-dimethylaminobenzaldehyde, Sigma-Aldrich) in glacial acetic acid were mixed in a new clear bottom 384-well plate. This plate was then incubated at RT for 30 minute. The absorbance at 490 nm was measured on Envision plate reader.
Compound IC50 values were calculated using the counts of 500 nM of a reference standard treatment as one hundred percent inhibition, and counts of no compound but DMSO treatment as zero percent inhibition.
`COc1ccccc1N1CCN(c2cc(NC(=O)Cc3ccc(C)cc3)cc(-c3ccccc3-c3nnn[nH]3)n2)CC1` [Example 129, N-(2-(2-(1H-tetrazol-5-yl)phenyl)-6-(4-(2-methoxyphenyl)piperazin-1-yl)pyridin-4-yl)-2-(p-tolyl)acetamide] showed an IC50 of 1250 nM.
With `CCCN(Cc1ccccc1)c1cc(NC(=O)Cc2ccc(C)cc2)cc(-c2ccccc2S(N)(=O)=O)n1` [Example 33, N-(2-(benzyl (propyl)amino)-6-(2-sulfamoylphenyl)pyridin-4-yl)-2-(p-tolyl) acetamide] the IC50 was 508 nM.
In the case of `Cc1cccnc1Nc1cc(-c2ccccc2-c2nnn[nH]2)nc(N(Cc2ccccc2)CC(C)C)c1` [Example 168, 6-(2-(1H-tetrazol-5-yl)phenyl)-N2-benzyl-N2-isobutyl-N4-(3-methylpyridin-2-yl)pyridine-2,4-diamine], the IC50 is reported as 393 nM.
`CCN(Cc1ccccc1)c1cc(NC(=O)Cc2ccc(C#N)cc2)cc(-c2ccccc2-c2nnn[nH]2)n1` [Example 282, N-(2-(2-(1H-Tetrazol-5-yl)phenyl)-6-(benzyl(ethyl)amino)pyridin-4-yl)-2-(4-cyanophenyl)acetamide] was tested, and the IC50 was 1580 nM.
`CC(C)CN(Cc1ccccc1)c1cc(Nc2ccc(Cl)cc2Cl)cc(-c2ccccc2-c2nnn[nH]2)n1` [Example 174, 6-(2-(1H-tetrazol-5-yl)phenyl)-N2-benzyl-N4-(2,4-dichlorophenyl)-N2-isobutylpyridine-2,4-diamine] showed an IC50 of 16.5 nM.
`CCCN(Cc1ccccc1)c1cc(NC(=O)Cc2csc(C)n2)cc(-c2ccccc2-c2nn[nH]n2)n1` [Example 211, N-(2-(2-(2H-tetrazol-5-yl)phenyl)-6-(benzyl(propyl)amino)pyridin-4-yl)-2-(2-methylthiazol-4-yl)acetamide] was tested, and the IC50 was 906 nM.
Molecule `Cc1ccc(CC(=O)Nc2cc(-c3ccccc3-c3nnn[nH]3)nc(N(Cc3ncccn3)CC(C)C)n2)cc1` [Example 92, N-(6-(2-(1H-tetrazol-5-yl)phenyl)-2-(isobutyl(pyrimidin-2-ylmethyl)amino)pyrimidin-4-yl)-2-(p-tolyl)acetamide] has an IC50 of 146 nM.
`CC(C)CN(Cc1ccccc1)c1cc(NC(=O)Cc2ccc(F)c(Cl)c2)cc(-c2ccccc2-c2nnn[nH]2)n1` [Example 233, N-(2-(2-(1H-tetrazol-5-yl)phenyl)-6-(benzyl(isobutyl)amino)pyridin-4-yl)-2-(3-chloro-4-fluorophenyl)acetamide] gave an IC50 of 961 nM.
Work on `CCCN(Cc1ccccc1)c1cc(NC(=O)Nc2ccc(Cl)cc2F)cc(-c2ccccc2-c2noc(=O)[nH]2)n1` [Example 12, 1-(2-(benzyl(propyl)amino)-6-(2-(5-oxo-4,5-dihydro-1,2,4-oxadiazol-3-yl)phenyl)pyridin-4-yl)-3-(4-chloro-2-fluorophenyl)urea] yielded an IC50 of 7 nM.
In the case of `COc1cc(Nc2cc(-c3ccccc3-c3nnn[nH]3)nc(N(Cc3ccccc3)CC(C)C)c2)ccc1F` [Example 190, 6-(2-(1H-tetrazol-5-yl)phenyl)-N2-benzyl-N4-(4-fluoro-3-methoxyphenyl)-N2-isobutylpyridine-2,4-diamine], the IC50 is reported as 8.5 nM.
In the case of `CC(C)c1ccc(CC(=O)Nc2cc(-c3ccccc3-c3nnn[nH]3)nc(N3CCc4ccccc4C3)n2)cc1` [Example 95, N-(6-(2-(1H-tetrazol-5-yl)phenyl)-2-(3,4-dihydroisoquinolin-2(1H)-yl)pyrimidin-4-yl)-2-(4-isopropylphenyl)acetamide], the IC50 is reported as 1390 nM.
In the case of `CCCN(Cc1ccccc1)c1cc(NC(=O)Cc2c(C)noc2C)cc(-c2ccccc2-c2nn[nH]n2)n1` [Example 213, N-(2-(2-(2H-tetrazol-5-yl)phenyl)-6-(benzyl(propyl)amino)pyridin-4-yl)-2-(3,5-dimethylisoxazol-4-yl)acetamide], the IC50 is reported as 651 nM.
`CCCN(Cc1ccccc1)c1cc(NC(=O)Cc2ccc(C)cc2)cc(-c2cc(C)ccc2-c2nnn[nH]2)n1` [Example 303, N-(2-(Benzyl(propyl)amino)-6-(5-methyl-2-(1H-tetrazol-5-yl)phenyl)pyridin-4-yl)-2-(p-tolyl)acetamide] was tested, and the IC50 was 102 nM.
`CCCN(Cc1ccccc1)c1cc(NC(=O)Cc2cc(C)no2)cc(-c2ccccc2-c2nnn[nH]2)n1` [Example 296] showed an IC50 of 797 nM.
With `CC(C)CN(Cc1ccccc1)c1cc(Nc2ccccc2F)cc(-c2ccccc2-c2nnn[nH]2)n1` [Example 179, 6-(2-(1H-tetrazol-5-yl)phenyl)-N2-benzyl-N4-(2-fluorophenyl)-N2-isobutylpyridine-2,4-diamine] the IC50 was 10.9 nM.
In the case of `CC(C)CN(Cc1ccccc1)c1cc(Nc2nnc(-c3ccccc3)s2)cc(-c2ccccc2-c2nnn[nH]2)n1` [Example 52, 6-(2-(1H-tetrazol-5-yl)phenyl)-N2-benzyl-N2-isobutyl-N4-(5-phenyl-1,3,4-thiadiazol-2-yl)pyridine-2,4-diamine], the IC50 is reported as 191 nM.
Molecule `CC(C)CN(CC(C)C)c1cc(NC(=O)Nc2ccccc2F)cc(-c2ccccc2C(=O)O)n1` [Example 252, 2-(6-(diisobutylamino)-4-(3-(2-fluorophenyl)ureido)pyridin-2-yl)benzoic acid] has an IC50 of 972 nM.
`CC(C)CN(Cc1ccccc1)c1cc(NC(=O)Cc2ccc(F)cc2F)cc(-c2ccccc2-c2nnn[nH]2)n1` [Example 229, N-(2-(2-(1H-tetrazol-5-yl)phenyl)-6-(benzyl(isobutyl)amino)pyridin-4-yl)-2-(2,4-difluorophenyl)acetamide] gave an IC50 of 188 nM.
`CCOc1ccc(NC(=O)Nc2cc(-c3ccccc3-c3nnn[nH]3)nc(N(CC)Cc3ccccc3)c2)cc1` [Example 279] gave an IC50 of 537 nM.
Molecule `Cc1ccc(NC(=O)Nc2cc(-c3ccccc3-c3nnn[nH]3)nc(N(Cc3ccccc3)CC(C)C)n2)cc1` [Example 10, 1-(6-(2-(1H-tetrazol-5-yl)phenyl)-2-(benzyl(isobutyl)amino)pyrimidin-4-yl)-3-(p-tolyl)urea] has an IC50 of 404 nM.
With `CCC(CC(=O)O)c1cc(NC(=O)Nc2ccc(C)cc2)cc(N(Cc2ccc(F)cc2)CC(C)C)n1` (single isomer, unassigned) [Example 250, 3-(6-((4-fluorobenzyl)(isobutyl)amino)-4-(3-(p-tolyl)ureido)pyridin-2-yl)pentanoic acid] the IC50 was 156 nM.
`CCC(CC(=O)O)c1cc(Nc2ccc(Cl)cc2)cc(N(Cc2ccc(F)cc2)CC(C)C)n1` (single isomer, unassigned) [Example 248, 3-(4-((4-chlorophenyl)amino)-6-((4-fluorobenzyl)(isobutyl)amino)pyridin-2-yl)pentanoic acid] showed an IC50 of 217 nM.
`CCC(CC(=O)O)c1cc(Nc2ccc3nc(C)sc3c2)cc(N(Cc2ccc(F)cc2)C(C)C)n1` (single isomer, unassigned) [Example 247, 3-(6-((4-fluorobenzyl)(isopropyl)amino)-4-((2-methylbenzo [d]thiazol-6-yl)amino)pyridin-2-yl)pentanoic acid] was tested, and the IC50 was 11.1 nM.
For `CCCN(Cc1ccccc1)c1cc(NC(=O)Nc2ccc(C)cc2)cc(-c2ccccc2C(=O)NS(=O)(=O)C2CC2)n1` [Example 20, 2-(6-(benzyl(propyl)amino)-4-(3-(p-tolyl)ureido)pyridin-2-yl)-N-(cyclopropylsulfonyl)benzamide], the IC50 was 594 nM.
`CCCN(Cc1ccccc1)c1cc(NC(=O)Cc2ccc(C)cc2)cc(-c2ccccc2C(=O)O)n1` [Example 17, 2-(6-(benzyl(propyl)amino)-4-(2-(p-tolyl)acetamido)pyridin-2-yl)benzoic acid] gave an IC50 of 161 nM.
`COCCN(c1cc(NC(=O)Nc2ccc(F)cc2)cc(-c2ccccc2-c2nnn[nH]2)n1)C1CCC(F)(F)CC1` [Example 114, 1-(2-(2-(1H-tetrazol-5-yl)phenyl)-6-((4,4-difluorocyclohexyl)(2-methoxyethyl)amino)pyridin-4-yl)-3-(4-fluorophenyl)urea] showed an IC50 of 6000 nM.
Molecule `CCCN(Cc1ccccc1)c1cc(NC(=O)Nc2ccc(OC(F)F)cc2)cc(-c2ccccc2-c2nnn[nH]2)n1` [Example 271, 1-(2-(2-(1H-tetrazol-5-yl)phenyl)-6-(benzyl(propyl)amino)pyridin-4-yl)-3-(4-(difluoromethoxy)phenyl)urea] has an IC50 of 46.3 nM.
Work on `CCCN(Cc1ccccc1)c1cc(NC(=O)CC2CCCC2)cc(-c2ccccc2-c2nn[nH]n2)n1` [Example 218, N-(2-(2-(2H-tetrazol-5-yl)phenyl)-6-(benzyl(propyl)amino)pyridin-4-yl)-2-cyclopentylacetamide] yielded an IC50 of 1970 nM.
For `CC(C)CN(Cc1ccccc1)c1cc(Nc2cccc(C(F)F)c2)cc(-c2ccccc2-c2nnn[nH]2)n1` [Example 191, 6-(2-(1H-tetrazol-5-yl)phenyl)-N2-benzyl-N4-(3-(difluoromethyl)phenyl)-N2-isobutylpyridine-2,4-diamine], the IC50 was 26.4 nM.
`Cc1ccc(CC(=O)Nc2cc(-c3ccccc3-c3nnn[nH]3)nc(N3CCCc4ccccc43)c2)cc1` [Example 68, N-(2-(2-(1H-tetrazol-5-yl)phenyl)-6-(3,4-dihydroquinolin-1(2H)-yl)pyridin-4-yl)-2-(p-tolyl)acetamide, TFA] gave an IC50 of 324 nM.
`CC(C)CN(CC(C)C)c1cc(NC(=O)Nc2ccccc2F)cc(-c2cc(F)ccc2C(=O)O)n1` [Example 251, 2-(6-(diisobutylamino)-4-(3-(2-fluorophenyl)ureido)pyridin-2-yl)-4-fluorobenzoic acid] showed an IC50 of 2000 nM.
